In general, IC50 refers to the concentration needed to halve the response being measured. Read a low IC50 as greater potency in that assay.

These results are taken from US8258151B2, “3-aminoimidazo [1,2-A] pyridine derivatives as SGLT inhibitors” (Merck Patent GmbH, priority 2006, dated 2012).

In one assay the target is T1, SGLT2 (Homo sapiens, UniProt P31639).
T1 construct: expressed in transfected cells
T1 sequence (P31639 1-672): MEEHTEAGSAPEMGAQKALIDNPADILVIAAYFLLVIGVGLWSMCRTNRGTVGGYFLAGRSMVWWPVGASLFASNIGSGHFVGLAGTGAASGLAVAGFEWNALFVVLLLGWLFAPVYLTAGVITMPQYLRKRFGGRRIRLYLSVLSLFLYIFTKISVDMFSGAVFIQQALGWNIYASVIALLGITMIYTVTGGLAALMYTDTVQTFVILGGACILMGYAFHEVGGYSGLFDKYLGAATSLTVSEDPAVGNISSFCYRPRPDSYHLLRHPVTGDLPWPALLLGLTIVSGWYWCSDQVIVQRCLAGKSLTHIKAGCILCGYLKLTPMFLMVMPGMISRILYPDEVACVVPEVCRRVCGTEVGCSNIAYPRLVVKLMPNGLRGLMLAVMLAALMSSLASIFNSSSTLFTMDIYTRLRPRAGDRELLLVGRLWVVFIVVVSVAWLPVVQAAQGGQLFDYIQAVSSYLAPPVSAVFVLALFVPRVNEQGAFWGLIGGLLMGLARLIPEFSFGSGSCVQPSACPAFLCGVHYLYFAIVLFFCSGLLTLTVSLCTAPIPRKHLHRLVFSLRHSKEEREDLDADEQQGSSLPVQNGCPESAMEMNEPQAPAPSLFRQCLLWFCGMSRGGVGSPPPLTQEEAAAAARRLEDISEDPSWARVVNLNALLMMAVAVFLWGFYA
Nature of the assay: SGLT2 activity measurement: 14C-AMG uptake in BHK cells transfected with SGLT2. Type of assay: cell-based. The conditions noted are these: AMG 2 mM, 37° C., 90 min. The essentials:
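BHK21 cells stably expressing human SGLT2 took up 14C-AMG (added as 2 mM solution) ± compound for 90 min at 37 °C in Na+-containing HEPES/Tris buffer, pH 7.4. Uptake was measured by scintillation counting after lysis. Non-specific uptake was defined in sodium-free sucrose buffer.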

The next assay has as its target T2, SGLT1 (Homo sapiens, UniProt P13866).
T2 construct: expressed in transfected cells
T2 sequence (P13866 1-664): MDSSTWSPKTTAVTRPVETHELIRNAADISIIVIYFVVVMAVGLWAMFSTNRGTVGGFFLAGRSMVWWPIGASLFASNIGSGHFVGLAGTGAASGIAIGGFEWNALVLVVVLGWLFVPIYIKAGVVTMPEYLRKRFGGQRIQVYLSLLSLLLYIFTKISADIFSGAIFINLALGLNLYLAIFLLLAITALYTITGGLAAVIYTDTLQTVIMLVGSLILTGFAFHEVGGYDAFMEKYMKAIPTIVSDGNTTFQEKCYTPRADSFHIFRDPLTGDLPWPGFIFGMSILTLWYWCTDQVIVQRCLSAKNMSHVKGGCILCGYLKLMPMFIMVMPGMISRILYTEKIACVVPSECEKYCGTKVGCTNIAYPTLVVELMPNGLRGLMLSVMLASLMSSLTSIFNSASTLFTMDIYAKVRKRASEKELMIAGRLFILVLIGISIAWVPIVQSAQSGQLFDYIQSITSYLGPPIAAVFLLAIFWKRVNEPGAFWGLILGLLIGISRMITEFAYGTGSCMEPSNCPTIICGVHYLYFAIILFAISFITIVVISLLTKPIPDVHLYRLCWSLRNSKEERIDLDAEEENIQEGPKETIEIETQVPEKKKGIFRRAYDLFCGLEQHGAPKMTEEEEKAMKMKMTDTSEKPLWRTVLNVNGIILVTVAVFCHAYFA
Nature of the assay: SGLT1 activity measurement: 14C-AMG uptake in BHK cells transfected with SGLT1. It counts as cell-based. The settings on record: AMG 50 μM, 37° C., 90 min. The essentials:
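BHK21 cells stably transfected with human SLC5A1 were incubated with 14C-AMG (added solution at 50 μM) ± compound for 90 min at 37 °C. The buffer was 140 mM NaCl, HEPES/Tris, pH 7.4. Lysed-cell radioactivity was counted by scintillation, and non-specific uptake was measured in sodium-free sucrose buffer.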

SMILES strings stand for the structures.

`COc1cc(C)c(-c2nc3ccc(F)cn3c2Nc2c(C)cc([N+](=O)[O-])cc2C)c(OCC(N)=O)c1` [Compound A254, 2-[2-(Aminocarbonylmethoxy)-4-methoxy-6-methylphenyl]-3-(2,6-dimethyl-4-nitrophenyl-amino)-6-fluoroimidazo[1,2-a]pyridine]: the IC50 at SGLT2 was 10 to 1000 nM; against SGLT1, over 10000 nM.
Consider `CCc1cc(OC)cc(OCC(N)=O)c1-c1nc2c(F)cc(F)cn2c1Nc1c(C)cc(F)cc1C` [Compound A255, 2-[2-(Aminocarbonylmethoxy)-4-methoxy-6-ethylphenyl]-3-(2,6-dimethyl-4-fluorophenyl-amino)-6,8-difluoroimidazo[1,2-a]pyridine], for which the IC50 on SGLT2 is 10 to 1000 nM; at SGLT1, 1000 to 10000 nM.
For `COc1cc(C)c(-c2nc3ccc(F)cn3c2Nc2c(C)cccc2Cl)c(OCC(N)=O)c1` [Compound A256, 2-[2-(Aminocarbonylmethoxy)-4-methoxy-6-methylphenyl]-3-(2-chloro-6-methylphenyl-amino)-6-fluoroimidazo[1,2-a]pyridine], in that order: 10 to 1000 nM and 1000 to 10000 nM.
In the same order, the values of `CCc1cc(OC)cc(OCC(N)=O)c1-c1nc2ccc(F)cn2c1Nc1c(C)cccc1Cl` [Compound A257, 2-[2-(Aminocarbonylmethoxy)-4-methoxy-6-ethylphenyl]-3-(2-chloro-6-methylphenylamino)-6-fluoroimidazo[1,2-a]pyridine] are 10 to 1000 nM and 1000 to 10000 nM.
